According to PubChem BioAssay AID1259407 (Chemical Carcinogenesis Research Information System (CCRIS), 2018):
Active and inactive are the calls of the source. The rule behind the calls is not given here.

Tested on: CCRIS mutagenicity, Ames/micronucleus/aberration tests
Assay: CCRIS mutagenicity studies
[1] = Test System: AMES SALMONELLA TYPHIMURIUM, Strain/Indicator: TA98, Metabolic Activation: NONE, Method: PREINCUBATION
[2] = Test System: AMES SALMONELLA TYPHIMURIUM, Strain/Indicator: TA100, Metabolic Activation: NONE, Method: PREINCUBATION
[3] = Test System: AMES SALMONELLA TYPHIMURIUM, Strain/Indicator: TA1535, Metabolic Activation: NONE, Method: PREINCUBATION
[4] = Test System: AMES SALMONELLA TYPHIMURIUM, Strain/Indicator: TA1537, Metabolic Activation: NONE, Method: PREINCUBATION
[5] = Test System: AMES SALMONELLA TYPHIMURIUM, Strain/Indicator: TA1538, Metabolic Activation: RAT, LIVER, S-9, AROCLOR 1254, Method: STANDARD PLATE

Structure (SMILES): C[Si](Cl)Cl
- mutagenic call (Test System: AMES SALMONELLA TYPHIMURIUM, Strain/Indicator: TA98, Metabolic Activation: HAMSTER, LIVER, S-9, AROCLOR 1254, Method: PREINCUBATION): inactive; negative
- mutagenic call [1]: inactive; negative
- mutagenic call (Test System: AMES SALMONELLA TYPHIMURIUM, Strain/Indicator: TA98, Metabolic Activation: RAT, LIVER, S-9, AROCLOR 1254, Method: PREINCUBATION): inactive; negative
- mutagenic call (Test System: AMES SALMONELLA TYPHIMURIUM, Strain/Indicator: TA100, Metabolic Activation: HAMSTER, LIVER, S-9, AROCLOR 1254, Method: PREINCUBATION): inactive; negative
- mutagenic call [2]: inactive; negative
- mutagenic call (Test System: AMES SALMONELLA TYPHIMURIUM, Strain/Indicator: TA100, Metabolic Activation: RAT, LIVER, S-9, AROCLOR 1254, Method: PREINCUBATION): inactive; negative
- mutagenic call (Test System: AMES SALMONELLA TYPHIMURIUM, Strain/Indicator: TA1535, Metabolic Activation: HAMSTER, LIVER, S-9, AROCLOR 1254, Method: PREINCUBATION): inactive; negative
- mutagenic call [3]: inactive; negative
- mutagenic call (Test System: AMES SALMONELLA TYPHIMURIUM, Strain/Indicator: TA1535, Metabolic Activation: RAT, LIVER, S-9, AROCLOR 1254, Method: PREINCUBATION): inactive; negative
- mutagenic call (Test System: AMES SALMONELLA TYPHIMURIUM, Strain/Indicator: TA1537, Metabolic Activation: HAMSTER, LIVER, S-9, AROCLOR 1254, Method: PREINCUBATION): inactive; negative
- mutagenic call [4]: inactive; negative
- mutagenic call (Test System: AMES SALMONELLA TYPHIMURIUM, Strain/Indicator: TA1537, Metabolic Activation: RAT, LIVER, S-9, AROCLOR 1254, Method: PREINCUBATION): inactive; negative
- mutagenic call (Test System: AMES SALMONELLA TYPHIMURIUM, Strain/Indicator: TA1538, Metabolic Activation: HAMSTER, LIVER, S-9, AROCLOR 1254, Method: PREINCUBATION): inactive; negative
- mutagenic call (Test System: AMES SALMONELLA TYPHIMURIUM, Strain/Indicator: TA1538, Metabolic Activation: NONE, Method: PREINCUBATION): inactive; negative
- mutagenic call (Test System: AMES SALMONELLA TYPHIMURIUM, Strain/Indicator: TA1538, Metabolic Activation: RAT, LIVER, S-9, AROCLOR 1254, Method: PREINCUBATION): inactive; negative
- mutagenic call (Test System: MOUSE LYMPHOMA, Strain/Indicator: L5178Y (TK+/TK-), Metabolic Activation: NONE, Method: SUSPENSION/PLATE): inactive; negative. reevaluation of results: negative
- mutagenic call (Test System: MOUSE LYMPHOMA, Strain/Indicator: L5178Y (TK+/TK-), Metabolic Activation: RAT, LIVER, S-9, AROCLOR 1254, Method: SUSPENSION/PLATE): inactive; negative. reevaluation of results: negative

Structure (SMILES): Cc1ccc(S(=O)(=O)Oc2ccc(N=Nc3ccc(-c4ccc(N=Nc5c(O)ccc6cc(S(=O)(=O)O)cc(S(=O)(=O)O)c56)c(C)c4)cc3C)cc2)cc1
- mutagenic call (Test System: AMES SALMONELLA TYPHIMURIUM, Strain/Indicator: TA98, Metabolic Activation: HAMSTER, LIVER, S-9, AROCLOR 1254 (10%), Method: PREINCUBATION): active; positive
- mutagenic call (Test System: AMES SALMONELLA TYPHIMURIUM, Strain/Indicator: TA98, Metabolic Activation: HAMSTER, LIVER, S-9, Method: PREINCUBATION (PRIVAL METHOD)): active; positive
- mutagenic call [1]: inactive; negative
- mutagenic call (Test System: AMES SALMONELLA TYPHIMURIUM, Strain/Indicator: TA98, Metabolic Activation: RAT, LIVER, S-9, AROCLOR 1254 (10%), Method: PREINCUBATION): inactive; negative
- mutagenic call (Test System: AMES SALMONELLA TYPHIMURIUM, Strain/Indicator: TA100, Metabolic Activation: HAMSTER, LIVER, S-9, AROCLOR 1254 (10%), Method: PREINCUBATION): inactive; negative
- mutagenic call [2]: inactive; negative
- mutagenic call (Test System: AMES SALMONELLA TYPHIMURIUM, Strain/Indicator: TA100, Metabolic Activation: RAT, LIVER, S-9, AROCLOR 1254 (10%), Method: PREINCUBATION): inactive; negative
- mutagenic call (Test System: AMES SALMONELLA TYPHIMURIUM, Strain/Indicator: TA1535, Metabolic Activation: HAMSTER, LIVER, S-9, AROCLOR 1254 (10%), Method: PREINCUBATION): inactive; negative
- mutagenic call [3]: inactive; negative
- mutagenic call (Test System: AMES SALMONELLA TYPHIMURIUM, Strain/Indicator: TA1535, Metabolic Activation: RAT, LIVER, S-9, AROCLOR 1254 (10%), Method: PREINCUBATION): inactive; negative
- mutagenic call (Test System: AMES SALMONELLA TYPHIMURIUM, Strain/Indicator: TA1537, Metabolic Activation: HAMSTER, LIVER, S-9, AROCLOR 1254 (10%), Method: PREINCUBATION): inactive; negative
- mutagenic call [4]: inactive; negative
- mutagenic call (Test System: AMES SALMONELLA TYPHIMURIUM, Strain/Indicator: TA1537, Metabolic Activation: RAT, LIVER, S-9, AROCLOR 1254 (10%), Method: PREINCUBATION): inactive; negative
- mutagenic call [5]: active; positive

Structure (SMILES): NC(=O)c1ccc(N)cc1
- mutagenic call (Test System: AMES SALMONELLA TYPHIMURIUM, Strain/Indicator: TA98, Metabolic Activation: HAMSTER, LIVER, S-9, AROCLOR 1254, Method: STANDARD PLATE): inactive; negative
- mutagenic call (Test System: AMES SALMONELLA TYPHIMURIUM, Strain/Indicator: TA98, Metabolic Activation: NONE, Method: STANDARD PLATE): inactive; negative
- mutagenic call (Test System: AMES SALMONELLA TYPHIMURIUM, Strain/Indicator: TA98, Metabolic Activation: RAT, LIVER, S-9, AROCLOR 1254, Method: STANDARD PLATE): inactive; negative
- mutagenic call (Test System: AMES SALMONELLA TYPHIMURIUM, Strain/Indicator: TA100, Metabolic Activation: HAMSTER, LIVER, S-9, AROCLOR 1254, Method: STANDARD PLATE): inactive; negative
- mutagenic call (Test System: AMES SALMONELLA TYPHIMURIUM, Strain/Indicator: TA100, Metabolic Activation: NONE, Method: STANDARD PLATE): inactive; negative
- mutagenic call (Test System: AMES SALMONELLA TYPHIMURIUM, Strain/Indicator: TA100, Metabolic Activation: RAT, LIVER, S-9, AROCLOR 1254, Method: STANDARD PLATE): inactive; negative
- mutagenic call (Test System: AMES SALMONELLA TYPHIMURIUM, Strain/Indicator: TA1535, Metabolic Activation: HAMSTER, LIVER, S-9, AROCLOR 1254, Method: STANDARD PLATE): inactive; negative
- mutagenic call (Test System: AMES SALMONELLA TYPHIMURIUM, Strain/Indicator: TA1535, Metabolic Activation: NONE, Method: STANDARD PLATE): inactive; negative
- mutagenic call (Test System: AMES SALMONELLA TYPHIMURIUM, Strain/Indicator: TA1535, Metabolic Activation: RAT, LIVER, S-9, AROCLOR 1254, Method: STANDARD PLATE): inactive; negative
- mutagenic call (Test System: AMES SALMONELLA TYPHIMURIUM, Strain/Indicator: TA1537, Metabolic Activation: HAMSTER, LIVER, S-9, AROCLOR 1254, Method: STANDARD PLATE): inactive; negative
- mutagenic call (Test System: AMES SALMONELLA TYPHIMURIUM, Strain/Indicator: TA1537, Metabolic Activation: NONE, Method: STANDARD PLATE): inactive; negative
- mutagenic call (Test System: AMES SALMONELLA TYPHIMURIUM, Strain/Indicator: TA1537, Metabolic Activation: RAT, LIVER, S-9, AROCLOR 1254, Method: STANDARD PLATE): inactive; negative
- mutagenic call (Test System: AMES SALMONELLA TYPHIMURIUM, Strain/Indicator: TA1538, Metabolic Activation: HAMSTER, LIVER, S-9, AROCLOR 1254, Method: STANDARD PLATE): inactive; negative
- mutagenic call (Test System: AMES SALMONELLA TYPHIMURIUM, Strain/Indicator: TA1538, Metabolic Activation: NONE, Method: STANDARD PLATE): inactive; negative
- mutagenic call [5]: inactive; negative
- mutagenic call (Test System: Mouse lymphoma, Strain/Indicator: L5178Y (tk+/tk-), Metabolic Activation: None, Method: Suspension/plate): inactive; negative
- mutagenic call (Test System: Mouse lymphoma, Strain/Indicator: L5178Y (tk+/tk-), Metabolic Activation: Rat, Liver, S-9, Aroclor 1254, Method: Suspension/plate): inactive; negative
